The results in this text go back to ChEMBL document CHEMBL1152505, “Enaminones 10. Molecular modeling aspects of the 5-methylcyclohexenone derivatives” (Bioorg Med Chem, 2009).

For series [1], the species on record is Rattus norvegicus. Briefly: Anticonvulsant activity in rat assessed as inhibition of maximal electroshock-induced seizures. The series is classed as functional. In general terms: The maximal electroshock test induces tonic seizures with an electrical stimulus.
Series [2] is filed under the species Rattus norvegicus. Briefly: Protective index, ratio of TD50 for rat to ED50 for maximal electroshock-induced rat seizure model. In kind it is functional.
For series [3], the species on record is Rattus norvegicus. Nature of the series: Anticonvulsant activity against maximal electroshock-induced seizures in rat assessed as time to peak effect. The series is classed as functional.
Series [4] can be described thus: Toxicity in rat. The series is classed as organism-based. Particulars: in vivo.
The nature of series [5]: Toxicity in mouse. In kind it is organism-based. Particulars: in vivo.
Series [6] is filed under the species Mus musculus. Nature of the series: Anticonvulsant activity against maximal electroshock-induced seizures in mouse assessed as time to peak effect. The series is classed as functional.
The species named for series [7] is Mus musculus. Nature of the series: Protective index, ratio of TD50 for mouse to ED50 for maximal electroshock-induced mouse seizure model. The series is classed as functional.
Series [8] is filed under the species Mus musculus. Nature of the series: Anticonvulsant activity in mouse assessed as inhibition of maximal electroshock-induced seizures. The series is classed as functional.

For the compound `CC1CC(=O)C=C(Nc2ccc(OC(F)(F)F)cc2)C1` (stereo unspecified), the ED50 in series [1] worked out at 6.5 mg/kg. Also, the PI in series [2] was more than 62. Further, the Time in series [3] amounted to 0.5 h. The TD50 in series [4] is more than 400 mg/kg.
`CC1CC(=O)C=C(Nc2ccc(I)cc2)C1` (stereo unspecified): the ED50 in series [1] came to 17.6 mg/kg; in series [8], 77 mg/kg. In addition, the TD50 in series [5] is 344 mg/kg; in series [4] it was more than 500 mg/kg. For the same compound, the PI in series [2] is given as more than 28.3; in series [7] it was 4.5. Also, the Time in series [3] is 2 h; in series [6], 0.25 h.
With `COc1cccc(NC2=CC(=O)CC(C)C2)c1` (stereo unspecified), in series [1], the ED50 was found to be 39.4 mg/kg. Besides, in series [2], the PI is given as more than 12.7. The Time in series [3] came to 0.5 h. Further, the TD50 in series [4] is more than 500 mg/kg.
For `CC1CC(=O)C=C(Nc2ccc(C(F)(F)F)cc2)C1` (stereo unspecified) the same measures were 10.3 mg/kg, more than 48.4, 1 h and more than 500 mg/kg.
Consider `CC1CC(=O)C=C(Nc2ccc(Br)cc2)C1` (stereo unspecified), for which the ED50 in series [1] stood at 7.6 mg/kg. The PI in series [2] is more than 65.8. The Time in series [3] was determined as 0.5 h. This compound gave a TD50 in series [4] of more than 500 mg/kg.
On the same counts, the results for `CC1CC(=O)C=C(Nc2ccc([N+](=O)[O-])cc2)C1` (stereo unspecified) are 18.4 mg/kg, more than 27.4, 4 h and more than 500 mg/kg.
With `CC1CC(=O)C=C(Nc2ccc(Cl)cc2)C1` (stereo unspecified), the figures for the ED50 in series [1] and in series [8] were 14.7 mg/kg and 16.7 mg/kg, respectively. Further, the results for the TD50 in series [5] and in series [4] were 111 mg/kg and more than 186 mg/kg, respectively. In addition, the PI is reported as more than 83.3 in series [2] and 6.6 in series [7]. The results for the Time in series [3] and in series [6] were 1 h and 0.25 h, respectively.

As a reminder, the ED50 is the midpoint of the dose-response relation. What is called TD50 is the dose at which the toxic effect under study appears in half of the subjects. A low value points to harm at a small dose.
